Measurements published in paper PMC5007443, “TNIK inhibition abrogates colorectal cancer stemness” (Nature Communications, 2016).

Experiments:
CSK = CSK (Homo sapiens, UniProt P41240); experiment: Kinase selectivity profiling, c-Src tyrosine kinase; format: biochemical; details: read-out: Percentage inhibition of CSK
Protocol: (§1) The selectivity of compounds against a panel of 50 human protein kinases was assessed using a non-radiometric assay.

IGF1R = IGF1R (Homo sapiens, UniProt P08069); experiment: Kinase selectivity profiling, Insulin-like growth factor 1 receptor; format: biochemical; details: read-out: Percentage inhibition of IGF1R
Protocol: as §1

LCK = LCK (Homo sapiens, UniProt P06239); experiment: Kinase selectivity profiling, Lymphocyte-specific protein tyrosine kinase; format: biochemical; details: read-out: Percentage inhibition of LCK
Protocol: as §1

MET = MET (Homo sapiens, UniProt P08581); experiment: Kinase selectivity profiling, Hepatocyte growth factor receptor; format: biochemical; details: read-out: Percentage inhibition of MET
Protocol: as §1

PYK2 = PYK2 (Homo sapiens, UniProt Q14289); experiment: Kinase selectivity profiling, Proline-rich tyrosine kinase 2; format: biochemical; details: read-out: Percentage inhibition of PYK2
Protocol: as §1

TRKA = TRKA (Homo sapiens, UniProt P04629); experiment: Kinase selectivity profiling, Tropomyosin receptor kinase A; format: biochemical; details: 0.1 µM inhibitor, ATP at Km; for inhibition at 0.1 µM: read-out: Percentage inhibition of TRKA
Protocol: as §1

TYRO3 = TYRO3 (Homo sapiens, UniProt Q06418); experiment: Kinase selectivity profiling, Tyro3 receptor tyrosine kinase; format: biochemical; details: read-out: Percentage inhibition of TYRO3
Protocol: as §1

AMPKα1/β1/γ1 = AMPKα1/β1/γ1 (Homo sapiens, UniProt Q13131); experiment: Kinase selectivity profiling, AMP-activated protein kinase; format: biochemical; details: read-out: Percentage inhibition of AMPKα1/β1/γ1
Protocol: as §1

CK1ε = CK1ε (Homo sapiens, UniProt P49674); experiment: Kinase selectivity profiling, Casein kinase 1ε; format: biochemical; details: read-out: Percentage inhibition of CK1ε
Protocol: as §1

DAPK1 = DAPK1 (Homo sapiens, UniProt P53355); experiment: Kinase selectivity profiling, Death-associated protein kinase 1; format: biochemical; details: read-out: Percentage inhibition of DAPK1
Protocol: as §1

IRAK4 = IRAK4 (Homo sapiens, UniProt Q9NWZ3); experiment: Kinase selectivity profiling, Interleukin 1 receptor-associated kinase 4; format: biochemical; details: read-out: Percentage inhibition of IRAK4
Protocol: as §1

JNK2 = JNK2 (Homo sapiens, UniProt P45984); experiment: Kinase selectivity profiling, c-Jun kinase 2; format: biochemical; details: read-out: Percentage inhibition of JNK2
Protocol: as §1

MST1 = MST1 (Homo sapiens, UniProt Q13043); experiment: Kinase selectivity profiling; format: biochemical; details: read-out: Percentage inhibition of MST1
Protocol: as §1

PDK1 = PDK1 (Homo sapiens, UniProt O15530); experiment: Kinase selectivity profiling; format: biochemical; details: read-out: Percentage inhibition of PDK1
Protocol: as §1

PKD2 = PKD2 (Homo sapiens, UniProt Q9BZL6); experiment: Kinase selectivity profiling; format: biochemical; details: read-out: Percentage inhibition of PKD2
Protocol: as §1

NEK2 = NEK2 (Homo sapiens, UniProt P51955); experiment: Kinase selectivity profiling, Never in mitosis gene A-related kinase 2; format: biochemical; details: read-out: Percentage inhibition of NEK2
Protocol: as §1

PAK2 = PAK2 (Homo sapiens, UniProt Q13177); experiment: Kinase selectivity profiling, P21 protein (Cdc42/Rac)-activated kinase 2; format: biochemical; details: read-out: Percentage inhibition of PAK2
Protocol: as §1

PBK = PBK (Homo sapiens, UniProt Q96KB5); experiment: Kinase selectivity profiling, PDZ binding kinase; format: biochemical; details: read-out: Percentage inhibition of PBK
Protocol: as §1

ROCK1 = ROCK1 (Homo sapiens, UniProt Q13464); experiment: Kinase selectivity profiling, Rho-associated, coiled-coil containing protein kinase 1; format: biochemical; details: read-out: Percentage inhibition of ROCK1
Protocol: as §1

SGK = SGK (Homo sapiens, UniProt O00141); experiment: Kinase selectivity profiling, Serum/glucocorticoid regulated kinase; format: biochemical; details: read-out: Percentage inhibition of SGK
Protocol: as §1

TSSK1 = TSSK1 (Homo sapiens, UniProt Q9BXA7); experiment: Kinase selectivity profiling, Testis-specific serine kinase 1; format: biochemical; details: read-out: Percentage inhibition of TSSK1
Protocol: as §1

HCT116 cells [1] = experiment: Drug sensitivity assay, ATP production, 2D culture; format: cell-based; details: Homo sapiens, HCT-116; HCT116, 2D culture, 72 h; read-out: IC50, ATP production (cell growth)
Protocol: Cells were seeded at a density of 3,000 cells per well in 96-well plates. Twenty-four hours after seeding, the cells were exposed to serially diluted compounds (0.003, 0.01, 0.03, 0.1, 0.3, 1, 3 and 10 μM) and incubated for 72 h (Fig. 3a). Patient-derived colorectal cancer spheroids were dissociated into single cells with Accutase (Nacalai Tesque) and seeded at a density of 3,000 cells per well into Ultra-Low attachment multiwall 96-well plates (Corning; Fig. 6d). ATP was measured with a CellTiter-Glo Luminescent Cell Viability Assay kit (Promega). Experiments were performed in triplicate and repeated at least two times.

HCT116 cells [2] = experiment: Cell cycle analysis by flow cytometry; format: cell-based, human; details: HCT116, 3 μM
Protocol: Cells were dissociated with Accutase, fixed with 70% EtOH at −20 °C, stained with Guava Cell Cycle reagent (Merck-Millipore) in accordance with the manufacturer's instructions, and analysed using a Guava easy Cyte HT flow cytometer (Merck-Millipore). Cell doublets were eliminated by doublet discrimination gating. Data were analyzed using FLOWJO version 10 software (Treestar; Fig. 3e). Experiments were performed in triplicate and repeated at least two times.

DLD-1 cells = experiment: In vivo tumorigenicity of pretreated DLD-1 cells in NOD/ShiJic-scid mice; design: species or system mouse; details: DLD-1, short-term in vitro treatment
Protocol: After washing off the compounds, 10,000, 1,000, 100 or 10 viable cells in culture medium containing 50% Matrigel (BD Biosciences) were injected subcutaneously into the flanks of NOD/ShiJic-scid Jcl (6-week-old male) mice. The number of mice that developed tumours was counted, and the frequency of cells with tumour-forming capability was calculated using the ELDA software.

Spheroid #6 = experiment: ALDH activity of spheroid #6; format: cell-based, human; details: spheroid #6, 1 μM, 48 hr
Protocol: Cells with ALDH activity were detected using an Aldefluor kit (Stem Cell Technologies) in accordance with the manufacturer's instructions. Briefly, cells were incubated in Aldefluor assay buffer containing ALDH substrate for 30 min at 37 °C. As a negative control, an aliquot of each sample was treated with 50 mM diethylaminobenzaldehyde (DEAB) to block ALDH activity. Cells were analysed with a Guava easy Cyte HT flow cytometer. Data analysis was performed using the Guava InCyte software. The analysis was performed in triplicate and repeated at least two times.

Chain of TRKA (P04629 33-796): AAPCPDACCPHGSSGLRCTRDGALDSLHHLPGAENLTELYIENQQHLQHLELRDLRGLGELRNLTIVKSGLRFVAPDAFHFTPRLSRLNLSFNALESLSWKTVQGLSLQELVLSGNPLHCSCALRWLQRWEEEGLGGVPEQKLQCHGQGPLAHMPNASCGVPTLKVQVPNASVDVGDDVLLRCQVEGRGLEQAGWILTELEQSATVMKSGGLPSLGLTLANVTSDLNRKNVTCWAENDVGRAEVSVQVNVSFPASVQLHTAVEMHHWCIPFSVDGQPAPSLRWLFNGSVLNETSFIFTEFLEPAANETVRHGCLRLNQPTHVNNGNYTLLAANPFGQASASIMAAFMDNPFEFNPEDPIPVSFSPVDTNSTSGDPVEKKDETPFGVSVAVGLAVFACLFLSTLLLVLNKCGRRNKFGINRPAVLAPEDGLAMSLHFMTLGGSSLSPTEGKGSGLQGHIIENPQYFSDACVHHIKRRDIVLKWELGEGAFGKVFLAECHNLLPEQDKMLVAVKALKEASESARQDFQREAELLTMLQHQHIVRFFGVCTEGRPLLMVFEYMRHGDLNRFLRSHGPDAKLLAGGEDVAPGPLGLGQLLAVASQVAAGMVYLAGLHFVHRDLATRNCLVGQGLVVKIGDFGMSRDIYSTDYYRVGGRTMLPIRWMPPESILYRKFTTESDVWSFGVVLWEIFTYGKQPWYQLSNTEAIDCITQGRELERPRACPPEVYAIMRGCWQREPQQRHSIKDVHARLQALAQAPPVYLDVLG
Chain of TSSK1 (Q9BXA7 whole entry): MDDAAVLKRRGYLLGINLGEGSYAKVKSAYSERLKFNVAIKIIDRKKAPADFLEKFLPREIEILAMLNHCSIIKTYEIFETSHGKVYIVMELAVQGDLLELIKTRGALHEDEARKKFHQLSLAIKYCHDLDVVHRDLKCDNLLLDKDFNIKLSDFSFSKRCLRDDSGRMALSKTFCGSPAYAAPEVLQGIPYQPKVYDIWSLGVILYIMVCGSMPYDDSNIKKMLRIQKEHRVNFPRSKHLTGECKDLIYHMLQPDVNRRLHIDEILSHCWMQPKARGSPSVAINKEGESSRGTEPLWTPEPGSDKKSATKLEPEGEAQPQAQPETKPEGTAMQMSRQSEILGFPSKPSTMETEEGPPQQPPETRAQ
Chain of PBK (Q96KB5 whole entry): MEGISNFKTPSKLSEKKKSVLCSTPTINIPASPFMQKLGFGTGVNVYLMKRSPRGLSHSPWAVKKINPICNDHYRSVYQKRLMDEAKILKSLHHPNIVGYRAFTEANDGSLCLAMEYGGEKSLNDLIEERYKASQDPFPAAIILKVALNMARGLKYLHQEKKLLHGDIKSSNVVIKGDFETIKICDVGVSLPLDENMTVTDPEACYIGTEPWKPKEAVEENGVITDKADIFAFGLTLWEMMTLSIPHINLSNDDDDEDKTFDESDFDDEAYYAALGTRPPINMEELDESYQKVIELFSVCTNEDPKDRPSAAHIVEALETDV
Chain of MET (P08581 25-1390): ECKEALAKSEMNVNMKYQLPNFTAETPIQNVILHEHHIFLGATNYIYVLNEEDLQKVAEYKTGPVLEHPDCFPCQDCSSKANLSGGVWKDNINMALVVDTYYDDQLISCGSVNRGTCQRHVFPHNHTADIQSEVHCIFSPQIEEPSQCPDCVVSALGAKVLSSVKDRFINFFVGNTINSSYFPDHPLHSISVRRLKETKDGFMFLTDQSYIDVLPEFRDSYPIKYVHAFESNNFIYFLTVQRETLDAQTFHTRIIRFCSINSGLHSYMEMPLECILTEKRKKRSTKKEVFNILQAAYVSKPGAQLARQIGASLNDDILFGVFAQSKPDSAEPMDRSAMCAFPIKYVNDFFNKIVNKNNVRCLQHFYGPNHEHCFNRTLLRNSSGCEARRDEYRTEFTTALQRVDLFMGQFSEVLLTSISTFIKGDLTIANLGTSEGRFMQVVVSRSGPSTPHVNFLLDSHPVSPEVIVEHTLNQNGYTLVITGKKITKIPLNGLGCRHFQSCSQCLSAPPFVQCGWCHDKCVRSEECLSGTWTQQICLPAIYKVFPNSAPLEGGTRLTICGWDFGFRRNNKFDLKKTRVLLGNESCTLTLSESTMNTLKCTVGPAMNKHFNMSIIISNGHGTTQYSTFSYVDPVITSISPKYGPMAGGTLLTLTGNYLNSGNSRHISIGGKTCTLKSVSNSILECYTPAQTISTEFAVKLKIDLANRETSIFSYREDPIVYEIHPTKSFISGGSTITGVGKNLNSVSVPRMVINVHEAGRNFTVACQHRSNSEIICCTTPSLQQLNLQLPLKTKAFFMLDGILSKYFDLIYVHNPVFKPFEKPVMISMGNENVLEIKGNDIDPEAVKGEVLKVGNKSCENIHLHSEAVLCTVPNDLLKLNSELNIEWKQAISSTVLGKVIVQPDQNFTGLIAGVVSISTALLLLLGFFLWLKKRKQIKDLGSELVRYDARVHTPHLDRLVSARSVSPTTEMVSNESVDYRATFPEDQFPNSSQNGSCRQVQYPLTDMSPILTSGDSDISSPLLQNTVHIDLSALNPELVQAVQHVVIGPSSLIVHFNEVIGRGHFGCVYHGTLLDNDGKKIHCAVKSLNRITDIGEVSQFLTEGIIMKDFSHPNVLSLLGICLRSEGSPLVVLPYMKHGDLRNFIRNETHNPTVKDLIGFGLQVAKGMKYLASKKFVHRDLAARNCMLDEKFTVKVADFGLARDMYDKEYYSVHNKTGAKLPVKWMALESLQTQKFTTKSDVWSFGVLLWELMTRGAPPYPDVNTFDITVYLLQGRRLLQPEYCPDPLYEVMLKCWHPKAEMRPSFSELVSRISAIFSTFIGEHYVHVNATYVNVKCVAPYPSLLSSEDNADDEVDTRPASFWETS
Chain of CK1ε (P49674 whole entry): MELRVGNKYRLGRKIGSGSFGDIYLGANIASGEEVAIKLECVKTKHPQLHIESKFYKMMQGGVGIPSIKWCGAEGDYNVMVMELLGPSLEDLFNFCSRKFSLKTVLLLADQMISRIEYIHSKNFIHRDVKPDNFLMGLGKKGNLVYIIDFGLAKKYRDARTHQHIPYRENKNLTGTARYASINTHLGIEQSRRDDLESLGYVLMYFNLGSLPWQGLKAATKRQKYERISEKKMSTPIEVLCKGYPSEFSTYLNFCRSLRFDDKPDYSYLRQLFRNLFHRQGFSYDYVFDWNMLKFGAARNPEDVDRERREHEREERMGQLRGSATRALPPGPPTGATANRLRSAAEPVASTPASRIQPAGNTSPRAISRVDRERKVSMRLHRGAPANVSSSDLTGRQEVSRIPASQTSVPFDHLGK
Chain of MST1 (Q13043 whole entry): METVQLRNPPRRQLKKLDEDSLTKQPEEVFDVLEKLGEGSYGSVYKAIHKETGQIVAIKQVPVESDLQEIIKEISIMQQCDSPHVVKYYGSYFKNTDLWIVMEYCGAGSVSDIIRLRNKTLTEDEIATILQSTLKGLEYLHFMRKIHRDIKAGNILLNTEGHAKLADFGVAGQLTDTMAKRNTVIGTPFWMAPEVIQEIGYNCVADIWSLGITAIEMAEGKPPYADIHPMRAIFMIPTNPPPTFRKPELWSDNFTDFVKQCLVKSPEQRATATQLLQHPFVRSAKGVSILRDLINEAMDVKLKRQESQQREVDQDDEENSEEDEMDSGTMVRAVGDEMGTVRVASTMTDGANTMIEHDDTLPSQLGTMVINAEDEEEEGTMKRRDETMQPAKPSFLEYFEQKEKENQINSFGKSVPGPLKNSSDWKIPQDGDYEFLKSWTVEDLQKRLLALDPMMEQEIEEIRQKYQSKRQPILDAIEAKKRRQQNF
Chain of LCK (P06239 whole entry): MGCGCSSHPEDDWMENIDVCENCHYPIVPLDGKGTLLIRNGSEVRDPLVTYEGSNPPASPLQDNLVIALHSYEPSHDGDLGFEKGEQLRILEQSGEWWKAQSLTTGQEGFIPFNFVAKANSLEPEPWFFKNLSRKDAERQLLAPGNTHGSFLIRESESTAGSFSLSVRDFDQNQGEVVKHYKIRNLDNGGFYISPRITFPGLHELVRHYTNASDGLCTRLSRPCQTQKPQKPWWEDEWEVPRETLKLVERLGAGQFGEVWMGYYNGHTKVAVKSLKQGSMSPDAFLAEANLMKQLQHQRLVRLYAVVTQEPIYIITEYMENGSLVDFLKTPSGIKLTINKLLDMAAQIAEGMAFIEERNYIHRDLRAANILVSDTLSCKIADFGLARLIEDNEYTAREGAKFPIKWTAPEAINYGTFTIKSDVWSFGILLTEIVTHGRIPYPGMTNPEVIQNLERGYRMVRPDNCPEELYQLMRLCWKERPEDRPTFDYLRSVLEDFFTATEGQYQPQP
Chain of NEK2 (P51955 whole entry): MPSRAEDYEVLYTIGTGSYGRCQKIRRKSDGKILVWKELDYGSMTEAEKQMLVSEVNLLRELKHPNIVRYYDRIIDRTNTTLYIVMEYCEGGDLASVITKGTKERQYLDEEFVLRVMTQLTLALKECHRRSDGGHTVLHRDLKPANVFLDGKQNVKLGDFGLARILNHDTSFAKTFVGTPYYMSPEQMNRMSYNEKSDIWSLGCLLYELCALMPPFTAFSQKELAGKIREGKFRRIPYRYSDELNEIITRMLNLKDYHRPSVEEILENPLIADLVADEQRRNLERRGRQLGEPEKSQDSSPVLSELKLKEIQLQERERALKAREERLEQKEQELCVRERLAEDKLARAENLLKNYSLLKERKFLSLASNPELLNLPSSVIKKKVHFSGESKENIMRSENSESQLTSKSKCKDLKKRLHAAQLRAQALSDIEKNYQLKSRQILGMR

| Compound | inhibition at 0.1 µM (CSK) [%] | inhibition at 0.1 µM (IGF1R) [%] | inhibition at 0.1 µM (LCK) [%] | inhibition at 0.1 µM (MET) [%] | inhibition at 0.1 µM (PYK2) [%] | inhibition at 0.1 µM (TRKA) [%] | inhibition at 0.1 µM (TYRO3) [%] | inhibition at 0.1 µM (AMPKα1/β1/γ1) [%] | inhibition at 0.1 µM (CK1ε) [%] | inhibition at 0.1 µM (DAPK1) [%] | inhibition at 0.1 µM (IRAK4) [%] | inhibition at 0.1 µM (JNK2) [%] | inhibition at 0.1 µM (MST1) [%] | inhibition at 0.1 µM (PDK1) [%] | inhibition at 0.1 µM (PKD2) [%] | inhibition at 0.1 µM (NEK2) [%] | inhibition at 0.1 µM (PAK2) [%] | inhibition at 0.1 µM (PBK) [%] | inhibition at 0.1 µM (ROCK1) [%] | inhibition at 0.1 µM (SGK) [%] | also measured |
| --- | --- | --- | --- | --- | --- | --- | --- | --- | --- | --- | --- | --- | --- | --- | --- | --- | --- | --- | --- | --- | --- |
| O[C@H]1CC[C@@H](Oc2cccc3cnc(Nc4ccc5nc[nH]c5c4)nc23)CC1 [NCB-0846, cis-4-(2-(3H-benzo[d]imidazol-5-ylamino)quinazolin-8-yloxy)cyclohexanol] | -1 | 10.7 | 23.6 | 42.1 | 73 | > 80 | 48.9 | 31.5 | -2.8 | 3.7 | 14.7 | 0.3 | 57.8 | 2.4 | 18.8 | -3.5 | -7.8 | -3.9 | 20.1 | 14.7 | Percentage inhibition of TRKA (TRKA; 0.1 µM): 89.1%; inhibition at 0.1 µM (TSSK1): 5.8%; IC50 (HCT116 cells [1]): 360 nM; >4N (%) (HCT116 cells [2]; 24 h): 6.1%; G0/G1 (%) (HCT116 cells [2]; 24 h): 20.6%; G2/M (%) (HCT116 cells [2]; 24 h): 30.6%; S (%) (HCT116 cells [2]; 24 h): 14.1%; SubG1 (%) (HCT116 cells [2]; 24 h): 28.6%; >4N (%) (HCT116 cells [2]; 48 h): 3.1%; G0/G1 (%) (HCT116 cells [2]; 48 h): 18.3%; G2/M (%) (HCT116 cells [2]; 48 h): 20.1%; S (%) (HCT116 cells [2]; 48 h): 11.1%; SubG1 (%) (HCT116 cells [2]; 48 h): 47.4%; tumour formation (DLD-1 cells): significantly reduced; percentage of cells with ALDH activity, - DEAB (Spheroid #6): 19.43%; percentage of cells with ALDH activity, + DEAB (Spheroid #6): 1.01% |
| O[C@H]1CC[C@H](Oc2cccc3cnc(Nc4ccc5nc[nH]c5c4)nc23)CC1 [NCB-0970] | -4 | 1.2 | 6.8 | 16.1 | 23.6 | 81.6 | 23.9 | 9.3 | -1.6 | 4.7 | 6.3 | -3 | 14.3 | -0.8 | 1 | -4.5 | -17.4 | -5.8 | 9.7 | 6.6 | inhibition at 0.1 µM (TSSK1): 1.1%; IC50 (HCT116 cells [1]): 2400 nM; >4N (%) (HCT116 cells [2]; 24 h): 9.1%; G0/G1 (%) (HCT116 cells [2]; 24 h): 24.5%; G2/M (%) (HCT116 cells [2]; 24 h): 35.8%; S (%) (HCT116 cells [2]; 24 h): 10.7%; SubG1 (%) (HCT116 cells [2]; 24 h): 20%; >4N (%) (HCT116 cells [2]; 48 h): 8.5%; G0/G1 (%) (HCT116 cells [2]; 48 h): 21%; G2/M (%) (HCT116 cells [2]; 48 h): 40.3%; S (%) (HCT116 cells [2]; 48 h): 10.7%; SubG1 (%) (HCT116 cells [2]; 48 h): 19.5%; tumour formation (DLD-1 cells): not; percentage of cells with ALDH activity, - DEAB (Spheroid #6): 44.32%; percentage of cells with ALDH activity, + DEAB (Spheroid #6): 2.30% |
